According to the supplement of paper PMC10307832:

Tests used:
Assay in all cases: relative viability (nuclei count vs DMSO), 5 days (fraction); higher = more cells survive
AT9283 + Pictilisib = compound: O=C(Nc1c[nH]nc1-c1nc2ccc(CN3CCOCC3)cc2[nH]1)NC1CC1 [AT9283] + CS(=O)(=O)N1CCN(Cc2cc3nc(-c4cccc5[nH]ncc45)nc(N4CCOCC4)c3s2)CC1 [Pictilisib] (partner 1 µM)
How it was run: (§1)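 Relative viability was taken as the ratio of nuclei in treated wells to nuclei in vehicle wells. Lung cancer cell lines in 1536-well plates received compounds by pin tool one day after seeding, either one drug alone or a fixed anchor-drug dose plus five library-drug doses (not always all listed) in √10 steps. Nuclei were counted on 4× images after 5 days of treatment, and values are medians of duplicate plates.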

Erlotinib + Luminespib = compound: C#Cc1cccc(Nc2ncnc3cc(OCCOC)c(OCCOC)cc23)c1 [Erlotinib] + CCNC(=O)c1noc(-c2cc(C(C)C)c(O)cc2O)c1-c1ccc(CN2CCOCC2)cc1 [Luminespib] (partner 0.01 µM)
How it was run: as §1

Erlotinib + Decitabine = compound: C#Cc1cccc(Nc2ncnc3cc(OCCOC)c(OCCOC)cc23)c1 [Erlotinib] + Nc1ncn([C@H]2C[C@H](O)[C@@H](CO)O2)c(=O)n1 [Decitabine] (partner 2 µM)
How it was run: as §1

Erlotinib + Linsitinib = compound: C#Cc1cccc(Nc2ncnc3cc(OCCOC)c(OCCOC)cc23)c1 [Erlotinib] + C[C@]1(O)C[C@@H](c2nc(-c3ccc4ccc(-c5ccccc5)nc4c3)c3c(N)nccn32)C1 [Linsitinib] (partner 1 µM)
How it was run: as §1

Erlotinib + Pictilisib = compound: C#Cc1cccc(Nc2ncnc3cc(OCCOC)c(OCCOC)cc23)c1 [Erlotinib] + CS(=O)(=O)N1CCN(Cc2cc3nc(-c4cccc5[nH]ncc45)nc(N4CCOCC4)c3s2)CC1 [Pictilisib] (partner 1 µM)
How it was run: as §1

In the case of NCI-H441, the relative viability (AT9283 + Pictilisib; first compound 0.003 µM) is reported as 0.359, the relative viability (AT9283 + Pictilisib; first compound 0.03 µM) is reported as 0.469 and the relative viability (AT9283 + Pictilisib; first compound 0.09487 µM) is reported as 0.138. The relative viability (AT9283 + Pictilisib; first compound 0.3 µM) was 0.186, the relative viability (Erlotinib + Luminespib; first compound 0.02 µM) was 0.259 and the relative viability (Erlotinib + Luminespib; first compound 0.2 µM) was 0.32. For the same cell line, the relative viability (Erlotinib + Luminespib; first compound 0.6325 µM) was 0.345, the relative viability (Erlotinib + Luminespib; first compound 2 µM) was 0.345 and the relative viability (Erlotinib + Decitabine; first compound 0.02 µM) was 0.232. It also gave a relative viability (Erlotinib + Decitabine; first compound 0.2 µM) of 0.26, a relative viability (Erlotinib + Decitabine; first compound 0.6325 µM) of 0.215 and a relative viability (Erlotinib + Decitabine; first compound 2 µM) of 0.257. The relative viability (Erlotinib + Linsitinib; first compound 0.02 µM) was 0.686, the relative viability (Erlotinib + Linsitinib; first compound 0.2 µM) was 0.746 and the relative viability (Erlotinib + Linsitinib; first compound 0.6325 µM) was 0.569. The relative viability (Erlotinib + Linsitinib; first compound 2 µM) was 0.326, the relative viability (Erlotinib + Pictilisib; first compound 0.02 µM) was 0.448 and the relative viability (Erlotinib + Pictilisib; first compound 0.2 µM) was 0.495. For the same cell line, the relative viability (Erlotinib + Pictilisib; first compound 0.6325 µM) was 0.393 and the relative viability (Erlotinib + Pictilisib; first compound 2 µM) was 0.392.
